Measurements taken from article PMC8456932, “Amphiphilic Iodine(III) Reagents for the Lipophilization of Peptides in Water” (Angewandte Chemie (International Ed. in English), 2021).
Blank lines part the entries; values can stand above or below the compound they belong to. Where a SMILES comes first, the peptide text is derived from it. The star is where a group is joined. Ethynyl(2-Si(iPr)3) = CC(C)[Si](C#C*)(C(C)C)C(C)C

What was measured:
Format in all cases: physicochemical
[1] = Solubility in water of EBX reagents
[2] = Cleavage of thioesters with hydroxylamine; settings: HPLC
Source text: The obtained thioalkynes constitute a new type of lipophilic compounds lacking the electrophilic carbonyl group present in natural palmitoylated peptides, which is required for their hydrolysis. In presence of trifluoroacetic acid (TFA), clean hydration to give thioesters was observed (Scheme 5 a). This hydration can be performed in a one pot protocol with silylated and alkylated alkynes on both small and larger peptides to give thioesters such as 11 aa–bb, 17 aa–bb, 18 aa and 23 aa–bb in 58–82 % yield. 11 bb, 17 bb and 23 bb are then natural palmitoylated products. […] Numerous enzymatic and chemical methods have been reported for the cleavage of palmitoyl groups on cysteine.[25] […] Nevertheless, treatment with a KF solution followed by hydroxylamine also allowed to cleave this thioester with 90 % conversion. Taken together, our work therefore gives access to lipophilic peptide derivatives modifiable/cleavable under different conditions, which can be exploited depending on the desired application.
Cleavage of palmitoylthioester of Ac-Trp-Met-Asn-Ser-Thr-Gly-Phe-Thr-Lys-Val-Cys-Gly-Ala-NH2 (17bb) A 1.5 mL vial was charged with 17bb (0.5 mg, […],1.0 equiv.) 70 µL 1M NH2OH with a small magnetic bar. The NH2OH solution was freshly prepared in Milli Q water. Then the reaction mixture was stirred for 4 h at rt. […]
Yield for 17 and disulfide quantitative (retention time 5.0). […]

[3] = Retention time in RP-HPLC as qualitative measure of lipophilicity; settings: analytical RP-HPLC
Method: For example, the retention time of peptide 11 shifted from 5.8 to 13.6 min for 11 a and 20.2 min for 11 b (See SI). The partition coefficient (LogP) of product 11 a was determined to be 1.53 compared with −1.43 for 11.[24] […]
followed by dimethylformamide wash (4 x 3 mL). Fmoc groups were then removed by shaking the resin with 20% v/v piperidine in dimethylformamide at 400 rpm, over 5 minutes. This step was carried out twice. Next, washing steps were achieved with dimethylformamide (5 x 3 mL). Finally, resin was dried with dichloromethane (5 x 3 mL).
Peptide cleavage and deprotection: Peptides were deprotected and cleaved from the resin under reducing conditions, by treatment with 2.5% v/v water and 2.5% v/v triisopropylsilane (TIPS) in neat trifluoroacetic acid (5 mL). The resulting mixture was shaken for 2 hours at 400 rpm, at room temperature. The resin was removed by filtration and peptides were precipitated in cold diethyl ether (20 mL), followed by a 2 hours incubation at -20 °C. Peptides were pelleted by centrifugation at 4000 rpm, at 4 °C, for 5 minutes. […]
A. Fractions containing the desired peptide were lyophilized. The purity was assessed by analyzing a 10-20 mM peptide solution by RP-HPLC (HPLC gradient: 100% A to 100% B in 30 minutes. At the same time, low-resolution mass spectrometric measurements were also acquired. […]

[4] = Partition coefficient (LogP), octanol/water method
Source text: [24] Determined using the octanol/water method according to: J. A.Arnott, S. L.Planey, Expert Opin. Drug Discovery 2012, 7, 863–875.
Calibration with 11a was achieved through the preparation of several samples of different concentrations and their analysis on RP HPLC. These analyses were repeated three times in order to obtain an average curve of calibration. The following linear regression was obtained: Y = 470.12 X + 284.02 and R = 0.9887, where Y is the absorption in mAUs -1 at 214 nm and X the concentration of 11a in mM.
Figure S3. calibration curve of 11a.
Calculation of Partition coefficient ( LogP)4
2.5 mg (4.0 µmol) 11a was dissolved in 1.7 mL octanol -H2O mixture (0.85 mL 1 -Octanol + 0.85 mL milli-Q H2O) in a 5 mL vial. In order to mix the layers, the vial was shaken on vertex for 1 min. Then the mixture was transferred to a separating funnel. The separating funnel was closed and left standing for 3 h to separate the organic and the H2O layer. Both layers were taken separately and submitted tonreverse phase HPLC. The concentration of both layers was determined by HPLC - […]
Amount of 11a in 1-octanol = 2.41 mg/mL
Amount of 11a in H2O = 0.09 mg/mL
Partition coefficient (P) = amount of 11a in 1-octanol/ amount of 11a in H2O […]
Following the same procedure for starting material 11: LogP = -1.53
4 J. R. Espinosa, C. R. Wand, C. Vega, E. Sanz, D. Frenkel, J. Chem. Phys. 2018, 149, 224501.
(1 picture or pasted object on this page, not shown here)

[5] = shake-flask 1-octanol/milli-Q H2O (0.85 mL + 0.85 mL), 2.5 mg, vortexed 1 min, left standing 3 h, both layers by RP-HPLC-UV 214 nm

increase of solubility in water compared to TIPS-EBX (1) ([1]; 4a vs 1, water): more than fifty fold
solubility in water [1]: 0.00046 g/mL
solubility in water ([1]; Supporting Information): 0.46 g/mL
Compound: K/Na-5-sulfonate TIPS-EBX-SO3M [4a]

Compound: silylthioester of H-Ala-Cys-Ala-Phe-Lys-Asp-NH2 [18aa]
cleavage of the thioester by hydroxylamine ([2]; 1 M NH2OH in Milli Q water, rt, 4 h): reacts only very slowly
conversion in thioester cleavage with KF and hydroxylamine ([2]; KF (28.7 equiv) and 1M NH2OH, 37 °C, 14 h): 90%

retention time in RP-HPLC ([3]; HPLC gradient Method 3 per SI): 5.8 min
Compound: CC(=O)N[C@@H](C)C(=O)N[C@@H](CS)C(=O)NCC(=O)N[C@@H](Cc1ccccc1)C(N)=O [compound 11, Ac-Ala-Cys-Gly-Phe-NH2] (Ac-ACGF-NH2)

Compound: CC[C@H](C)[C@H](NC(=O)[C@H](Cc1ccccc1)NC(=O)[C@H](CSC#C[Si](C(C)C)(C(C)C)C(C)C)NC(=O)[C@@H](NC(=O)[C@H](CCC(N)=O)NC(=O)[C@H](CSC#C[Si](C(C)C)(C(C)C)C(C)C)NC(=O)[C@H](Cc1c[nH]cn1)NC(=O)[C@H](Cc1ccccc1)NC(C)=O)C(C)C)C(=O)N[C@H](C(N)=O)[C@@H](C)O [24a, Alkynylated (Phe32-Thr40) Ac-Phe-His-Cys-Gln-Val-Cys-Phe-Ile-Thr-NH2] (Ac-FHC(Ethynyl(2-Si(iPr)3))QVC(Ethynyl(2-Si(iPr)3))FIT-NH2)
retention time (HPLC-MS of reaction mixture) ([3]; SI, HPLC gradient Method 1): 19.7

Compound: CC(=O)N[C@@H](C)C(=O)N[C@@H](CSC#C[Si](C(C)C)(C(C)C)C(C)C)C(=O)NCC(=O)N[C@@H](Cc1ccccc1)C(N)=O [11a] (Ac-AC(Ethynyl(2-Si(iPr)3))GF-NH2)
logP [4, 5]: 1.53
partition coefficient (LogP) [4, 5]: 1.43
Partition coefficient (P) = amount in 1-octanol / amount in H2O ([4]; shake-flask 1-octanol/milli-Q H2O, HPLC-UV 214 nm): 26.78

solubility in water [1]: 0.45 g/mL
solubility in water ([1]; Supporting Information): 0.45 g/mL
Compound: C14H29-EBX-SO3M [4b]
